Results as given in patent US20170312207A1, “MOISTURIZING AGENT” (SHOWA DENKO K.K., priority 2014, published 2017).

Tests used:
[1] = tested on: loricrin gene; assay: Promoting expression of CE-forming-related factor: loricrin gene, quantitative real-time PCR; assay type: cell-based, human; details: SVHK cells, 1 μM, 48 hours; standardized to GAPDH; purified water control 1.00
Protocol: (§1) Loricrin, involucrin, and transglutaminase-1 are known as CE-forming-related factors. Here, effect of an inositol derivative on promoting expression of CE-forming-related factors was examined by using human epidermal cells. Human epidermal cells (SVHK cells) which were established from introduction of SV40 gene into human epidermal cells, were seeded on a plastic petri dish at a seeding density of 10,000 cells/cm^2 and cultured for 24 hours in Dulbecco's Modified Eagle's Medium (DMEM, manufactured by Sigma-Aldrich Co. LLC.) containing 10% fetal bovine serum. […] Next, quantitative real-time PCR was performed using this cDNA as a template, and the expression levels of loricrin gene, involucrin gene, and transglutaminase-1 (TG-1) gene in SVHK cells of each group were quantified, respectively. In addition, the expression level of glyceraldehyde-3-phosphate dehydrogenase (GAPDH) which is a housekeeping gene in which variation is not observed in the expression by adding a compound, as an internal standard gene, was quantified, and based on the expression levels of GAPDH gene in SVHK cells of each group, the expression levels of loricrin gene, involucrin gene, and TG-1 gene were standardized. […]

[2] = tested on: involucrin gene; assay: Promoting expression of CE-forming-related factor: involucrin gene, quantitative real-time PCR; assay type: cell-based, human; details: SVHK cells, 1 μM, 48 hours; standardized to GAPDH; purified water control 1.00
Protocol: as §1

[3] = tested on: transglutaminase-1 (TG-1) gene; assay: Promoting expression of CE-forming-related factor: transglutaminase-1 (TG-1) gene, quantitative real-time PCR; assay type: cell-based, human; details: SVHK cells, 1 μM, 48 hours; standardized to GAPDH; purified water control 1.00
Protocol: as §1

[4] = tested on: Normal human epidermal keratinocytes (NHEK cell); assay: Test for evaluating CE-forming ability; assay type: cell-based; details: NHEK cells, 1.8 mM Ca2+ medium, 1 μM, four days; purified water control 100
Protocol: Normal human epidermal keratinocytes (NHEK cell manufactured by KURABO INDUSTRIES LTD.) were seeded on a 24 well plate at 1×10^5 cells/cm^2 and cultured at 37° C. under 5% CO2 to reach confluence. As a medium of NHEK cells, HuMedia-KG2 (product name, manufactured by KURABO INDUSTRIES LTD.) was used. After that, the medium was replaced to HuMedia-KG2 medium containing 1.8 mM Ca2+, the inositol derivative dissolved in purified water of Example 2 was added to the final concentration of 1 μM, and culturing was further performed for four days. As for a control, in place of the inositol derivative, the same amount of purified water was added to NHEK cells, and the cells were cultured in the same manner as above. In addition, for comparison, myo-inositol dissolved in purified water was added to NHEK cells in place of the inositol derivative, and the cells were cultured in the same manner as above. After four days of culturing, cells of each group were collected, removed of the supernatant, added with 2% sodium dodecyl sulfate (SDS)-20 mM dithiothreitol (DTT), and heated at 100° C. for 15 minutes. Next, the cells were added with 1% acetic acid-50% ethanol, centrifuged (at 15,000 rpm for five minutes), and removed of the supernatant. Next, the cells were added with 10 mM Tris-HCl-1 mM EDTA and observed with a microscope, and an amount of CE formation was counted. […]

[5] = tested on: AQP3 gene; assay: Promoting effect on AQP3 expression, quantitative real-time PCR; assay type: cell-based, human; details: SVHK cells, 1 μM, 48 hours; standardized to GAPDH; purified water control 1.00
Protocol: (§2) Human epidermal cells (SVHK cells) which were established from introduction of SV40 gene into human epidermal cells, were seeded on a plastic petri dish at a seeding density of 10,000 cells/cm^2 and cultured for 24 hours in Dulbecco's Modified Eagle's Medium (DMEM, manufactured by Sigma-Aldrich Co. LLC.) containing 10% fetal bovine serum. Next, to the medium of SVHK cells, the inositol derivatives dissolved in purified water of Examples 1 to 6 and Comparative Example 1 were added to the final concentration of 1 μM, and culturing was further performed for 48 hours. As for a control, in place of the inositol derivative, the same amount of purified water was added to SVHK cells, and the cells were cultured in the same manner as above. […] Next, quantitative real-time PCR was performed using this cDNA as a template, and the expression levels of AQP3 gene in SVHK cells of each group were quantified. In addition, the expression level of glyceraldehyde-3-phosphate dehydrogenase (GAPDH) which is a housekeeping gene in which variation is not observed in the expression by adding a compound, as an internal standard gene, was quantified, and based on the expression levels of GAPDH gene in SVHK cells of each group, the expression levels of AQP3 gene were standardized. […]

[6] = tested on: SPT1 gene; assay: Promoting effect on serine palmitoyltransferase expression: SPT1 gene; assay type: cell-based, human; details: SVHK cells, 10 μM, 48 hours; standardized to GAPDH; purified water control 1.00
Protocol: (§3) Serine palmitoyltransferase (SPT) is known as a rate-limiting enzyme for ceramides synthesis. Here, effect of an inositol derivative on promoting SPT gene expression was examined by using human epidermal cells. Human epidermal cells (SVHK cells) which were established from introduction of SV40 gene into human epidermal cells, were seeded on a plastic petri dish at a seeding density of 10,000 cells/cm^2 and cultured for 24 hours in Dulbecco's Modified Eagle's Medium (DMEM, manufactured by Sigma-Aldrich Co. LLC.) containing 10% fetal bovine serum. […] Next, quantitative real-time PCR was performed using this cDNA as a template, and the expression levels of SPT gene in SVHK cells of each group were quantified. More specifically, the expression levels of SPT1, SPT2, and SPT3 genes which are subunits of SPT were quantified. In addition, the expression level of glyceraldehyde-3-phosphate dehydrogenase (GAPDH) which is a housekeeping gene in which variation is not observed in the expression by adding a compound, as an internal standard gene, was quantified, and based on the expression levels of GAPDH gene in SVHK cells of each group, the expression levels of SPT1, SPT2, and SPT3 genes were standardized. […]

[7] = tested on: SPT2 gene; assay: Promoting effect on serine palmitoyltransferase expression: SPT2 gene; assay type: cell-based, human; details: SVHK cells, 10 μM, 48 hours; standardized to GAPDH; purified water control 1.00
Protocol: as §3

[8] = tested on: SPT3 gene; assay: Promoting effect on serine palmitoyltransferase expression: SPT3 gene; assay type: cell-based, human; details: SVHK cells, 10 μM, 48 hours; standardized to GAPDH; purified water control 1.00
Protocol: as §3

[9] = tested on: filaggrin gene; assay: Promoting effect on filaggrin gene expression, quantitative real-time PCR; assay type: cell-based, human; details: SVHK cells, 10 μM, 48 hours; standardized to GAPDH; purified water control 1.00
Protocol: as §2, with “Effect of an inositol derivative on promoting filaggrin gene expression was examined by using human epidermal cells. Human epidermal” for “Human epidermal”, “concentration of 10 μM, and” for “concentration of 1 μM, and”, “levels of filaggrin gene in” for “levels of AQP3 gene in”, “levels of filaggrin gene were” for “levels of AQP3 gene were”

SMILES: O[C@H]1[C@H](O)[C@@H](O)[C@H](O)[C@@H](O)[C@H]1O [Myo-inositol, myo-inositol]
- Expression levels of gene (relative value) lorierin [1]: 0.39
- Expression levels of gene (relative value) involucrin [2]: 2.42
- Expression levels of gene (relative value) TG-1 [3]: 1.96
- Amount of CE formation (relative value) [4]: 123
- Expression levels of AQP3 gene (relative value) [5]: 0.83
- Expression levels of gene (relative value) SPT1 [6]: 2.01
- Expression levels of gene (relative value) SPT2 [7]: 2.49
- Expression levels of gene (relative value) SPT3 [8]: 1.64
- Expression levels of filaggrin gene (relative value) [9]: 5.94
